# Legend:
# morningglory [1] = test: Test A preemergence; format: in vivo, Ipomoea spp.
# Procedure, shortened: (§1)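 Visual 0–100 rating (100 = complete control) taken about 10 d post-treatment relative to untreated checks. Preemergence: directed soil spray on sown loam/sand pots. Postemergence: seedlings 2–10 cm, 1–2 leaf. Non-phytotoxic solvent formulation with surfactant.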
# velvetleaf [2] = test: Test A preemergence; format: in vivo, Abutilon theophrasti
# Procedure, shortened: as §1
# giant foxtail [3] = test: Test A preemergence; format: in vivo, Setaria faberii
# Procedure, shortened: as §1
# barnyardgrass [4] = test: Test A preemergence; format: in vivo, Echinochloa crus-galli
# Procedure, shortened: as §1
# morningglory [5] = test: Test A postemergence; format: in vivo, Ipomoea spp.
# Procedure, shortened: as §1
# giant foxtail [6] = test: Test A postemergence; format: in vivo, Setaria faberii
# Procedure, shortened: as §1
# wheat [7] = test: Test A postemergence; format: in vivo, Triticum aestivum
# Procedure, shortened: as §1
# pigweed [8] = test: Test A postemergence; format: in vivo, Amaranthus retroflexus
# Procedure, shortened: as §1
# large (Lg) crabgrass [9] = test: Test A preemergence; format: in vivo, Digitaria sanguinalis
# Procedure, shortened: as §1
# corn [10] = test: Test A postemergence; format: in vivo, Zea mays
# Procedure, shortened: as §1
# barnyardgrass [11] = test: Test B flooded paddy test; format: in vivo, Echinochloa crus-galli; conditions: Flood, 250 g ai/ha; 0 to 100 scale where 0 is no effect and 100 is complete control
# Procedure, shortened: (§2)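 Greenhouse flooded-pot test: compounds dosed into 3 cm standing water over 2-leaf plants, flood held constant. Rated visually after 13–15 days on 0–100 (complete control = 100); a dash marks no test result.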
# Heteranthera limosa = test: Test B flooded paddy test; format: in vivo; conditions: Flood, 250 g ai/ha; 0 to 100 scale where 0 is no effect and 100 is complete control
# Procedure, shortened: as §2
# large (Lg) crabgrass [12] = test: Test A postemergence; format: in vivo, Digitaria sanguinalis
# Procedure, shortened: as §1
# velvetleaf [13] = test: Test A postemergence; format: in vivo, Abutilon theophrasti
# Procedure, shortened: as §1
# rice = test: Test B flooded paddy test; format: in vivo, Oryza sativa; conditions: Flood, 250 g ai/ha; 0 to 100 scale where 0 is no effect and 100 is complete control
# Experimental: (§3) Plant species in the flooded paddy test selected from rice (Oryza sativa), sedge, umbrella (small-flower umbrella sedge, Cyperus difformis), (Heteranthera limosa), and barnyardgrass (Echinochloa crus-galli) were grown to the 2-leaf stage for testing. At time of treatment, test pots were flooded to 3 cm above the soil surface, treated by application of test compounds directly to the paddy water, and then maintained at that water depth for the duration of the test. Treated plants and controls were maintained in a greenhouse for 13 to 15 days, after which time all species were compared to controls and visually evaluated. Plant response ratings, summarized in Table B, are based on a scale of 0 to 100 where 0 is no effect and 100 is complete control. A dash (-) response means no test result.
# pigweed [14] = test: Test A preemergence; format: in vivo, Amaranthus retroflexus
# Procedure, shortened: as §1
# wheat [15] = test: Test A preemergence; format: in vivo, Triticum aestivum
# Procedure, shortened: as §1
# corn [16] = test: Test A preemergence; format: in vivo, Zea mays
# Procedure, shortened: as §1
# sedge, umbrella = test: Test B flooded paddy test; format: in vivo, Cyperus difformis; conditions: Flood, 250 g ai/ha; 0 to 100 scale where 0 is no effect and 100 is complete control
# Experimental: as §3
# barnyardgrass [17] = test: Test A postemergence; format: in vivo, Echinochloa crus-galli
# Procedure, shortened: as §1
# [18] = 125 g ai/ha, 0 to 100 scale where 0 is no effect and 100 is complete control
# [19] = 500 g ai/ha, 0 to 100 scale, 0 no effect, 100 complete control, approx. 10 days
# [20] = 500 g ai/ha, 0 to 100 scale, 0 no effect, 100 complete control
# [21] = 1000 g ai/ha, 0 to 100 scale, 0 no effect, 100 complete control, approx. 10 days
# [22] = 1000 g ai/ha, 0 to 100 scale, 0 no effect, 100 complete control
SMILES,Morningglory plant response rating (morningglory [1]; [19]),Velvetleaf plant response rating (velvetleaf [2]; [19]),"Foxtail, Giant plant response rating (giant foxtail [3]; [19])",Barnyardgrass plant response rating (barnyardgrass [4]; [19]),"Plant response rating, Morningglory (morningglory [5]; [18])","Plant response rating, Morningglory (morningglory [5]; [20])","Plant response rating, Foxtail, Giant (giant foxtail [6]; [18])","Plant response rating, Foxtail, Giant (giant foxtail [6]; [20])","Plant response rating, Wheat (wheat [7]; [18])","Plant response rating, Wheat (wheat [7]; [20])","Plant response rating, Pigweed (pigweed [8]; [18])","Plant response rating, Pigweed (pigweed [8]; [20])","Crabgrass, Large plant response rating (large (Lg) crabgrass [9]; [19])","Plant response rating, Corn (corn [10]; [18])","Plant response rating, Corn (corn [10]; [20])","Plant response rating, Barnyardgrass (barnyardgrass [11])","Plant response rating, Ducksalad (Heteranthera limosa)","Plant response rating, Crabgrass, Large (large (Lg) crabgrass [12]; [18])","Plant response rating, Rice (rice)","Plant response rating, Sedge, Umbrella (sedge, umbrella)",other results
FC(F)(F)c1cnc(Oc2ccccc2-n2cc(Cl)cn2)nc1 [Compound 6],10,100,100,90,40,70,80,100,40,90,100,100,100,20,60,0,65,50,15,55,"Morningglory plant response rating (morningglory [1]; [18]): 0; Velvetleaf plant response rating (velvetleaf [2]; [18]): 100; Foxtail, Giant plant response rating (giant foxtail [3]; [18]): 90; Barnyardgrass plant response rating (barnyardgrass [4]; [18]): 20; Crabgrass, Large plant response rating (large (Lg) crabgrass [9]; [18]): 90; Plant response rating, Crabgrass, Large (large (Lg) crabgrass [12]; [20]): 100; Plant response rating, Velvetleaf (velvetleaf [13]; [18]): 100; Plant response rating, Velvetleaf (velvetleaf [13]; [20]): 100; Pigweed plant response rating (pigweed [14]; [18]): 100; Pigweed plant response rating (pigweed [14]; [19]): 100; Wheat plant response rating (wheat [15]; [18]): 0; Wheat plant response rating (wheat [15]; [19]): 30; Corn plant response rating (corn [16]; [18]): 0; Corn plant response rating (corn [16]; [19]): 20; Plant response rating, Barnyardgrass (barnyardgrass [17]; [18]): 40; Plant response rating, Barnyardgrass (barnyardgrass [17]; [20]): 100"
Fc1cnc(Oc2ccccc2-n2cc(Cl)cn2)nc1 [Compound 11],60,100,100,100,60,100,70,90,0,20,100,100,100,10,50,0,50,70,0,0,"Morningglory plant response rating (morningglory [1]; [18]): 30; Velvetleaf plant response rating (velvetleaf [2]; [18]): 90; Foxtail, Giant plant response rating (giant foxtail [3]; [18]): 90; Barnyardgrass plant response rating (barnyardgrass [4]; [18]): 70; Crabgrass, Large plant response rating (large (Lg) crabgrass [9]; [18]): 90; Plant response rating, Crabgrass, Large (large (Lg) crabgrass [12]; [20]): 90; Plant response rating, Velvetleaf (velvetleaf [13]; [18]): 100; Plant response rating, Velvetleaf (velvetleaf [13]; [20]): 100; Pigweed plant response rating (pigweed [14]; [18]): 90; Pigweed plant response rating (pigweed [14]; [19]): 100; Wheat plant response rating (wheat [15]; [18]): 0; Wheat plant response rating (wheat [15]; [19]): 0; Corn plant response rating (corn [16]; [18]): 0; Corn plant response rating (corn [16]; [19]): 30; Plant response rating, Barnyardgrass (barnyardgrass [17]; [18]): 10; Plant response rating, Barnyardgrass (barnyardgrass [17]; [20]): 90"
Brc1cnc(Oc2ccccc2-n2cccn2)nc1 [Compound 13],–,–,–,–,–,–,–,–,–,–,–,–,–,–,–,0,30,–,0,0,"Morningglory plant response rating (morningglory [1]; [21]): 0; Velvetleaf plant response rating (velvetleaf [2]; [21]): 100; Foxtail, Giant plant response rating (giant foxtail [3]; [21]): 100; Plant response rating, Barnyardgrass (barnyardgrass [4]; [22]): 80; Plant response rating, Morningglory (morningglory [5]; [22]): 90; Plant response rating, Foxtail, Giant (giant foxtail [6]; [22]): 100; Plant response rating, Wheat (wheat [7]; [22]): 60; Plant response rating, Pigweed (pigweed [8]; [22]): 100; Plant response rating, Crabgrass, Large (large (Lg) crabgrass [9]; [22]): 100; Plant response rating, Corn (corn [10]; [22]): 40; Plant response rating, Crabgrass, Large (large (Lg) crabgrass [12]; [22]): 90; Plant response rating, Velvetleaf (velvetleaf [13]; [22]): 100; Pigweed plant response rating (pigweed [14]; [21]): 100; Wheat plant response rating (wheat [15]; [21]): 20; Plant response rating, Corn (corn [16]; [22]): 0; Plant response rating, Barnyardgrass (barnyardgrass [17]; [22]): 90"
FC(F)(F)c1cnc(Oc2ccccc2-n2cc(C(F)(F)F)cn2)nc1 [Compound 17],20,90,90,60,20,50,20,90,0,50,70,100,90,0,40,0,75,20,25,90,"Morningglory plant response rating (morningglory [1]; [18]): 0; Velvetleaf plant response rating (velvetleaf [2]; [18]): 70; Foxtail, Giant plant response rating (giant foxtail [3]; [18]): 60; Barnyardgrass plant response rating (barnyardgrass [4]; [18]): 50; Crabgrass, Large plant response rating (large (Lg) crabgrass [9]; [18]): 40; Plant response rating, Crabgrass, Large (large (Lg) crabgrass [12]; [20]): 90; Plant response rating, Velvetleaf (velvetleaf [13]; [18]): 50; Plant response rating, Velvetleaf (velvetleaf [13]; [20]): 100; Pigweed plant response rating (pigweed [14]; [18]): 100; Pigweed plant response rating (pigweed [14]; [19]): 100; Wheat plant response rating (wheat [15]; [18]): 0; Wheat plant response rating (wheat [15]; [19]): 70; Corn plant response rating (corn [16]; [18]): 0; Corn plant response rating (corn [16]; [19]): 0; Plant response rating, Barnyardgrass (barnyardgrass [17]; [18]): 0; Plant response rating, Barnyardgrass (barnyardgrass [17]; [20]): 20"
Clc1cnc(Oc2ccccc2-n2cc(Br)c(Br)n2)nc1 [Compound 19],0,20,90,20,0,40,0,30,0,0,30,90,90,0,30,0,40,0,20,30,"Plant response rating, Morningglory (morningglory [1]; [18]): 0; Plant response rating, Velvetleaf (velvetleaf [2]; [18]): 0; Plant response rating, Foxtail, Giant (giant foxtail [3]; [18]): 20; Plant response rating, Barnyardgrass (barnyardgrass [4]; [18]): 0; Plant response rating, Crabgrass, Large (large (Lg) crabgrass [9]; [18]): 0; Plant response rating, Crabgrass, Large (large (Lg) crabgrass [12]; [20]): 20; Plant response rating, Velvetleaf (velvetleaf [13]; [18]): 30; Plant response rating, Velvetleaf (velvetleaf [13]; [20]): 60; Plant response rating, Pigweed (pigweed [14]; [18]): 0; Pigweed plant response rating (pigweed [14]; [19]): 100; Plant response rating, Wheat (wheat [15]; [18]): 0; Wheat plant response rating (wheat [15]; [19]): 0; Plant response rating, Corn (corn [16]; [18]): 0; Corn plant response rating (corn [16]; [19]): 0; Plant response rating, Barnyardgrass (barnyardgrass [17]; [18]): 0; Plant response rating, Barnyardgrass (barnyardgrass [17]; [20]): 20"

# From US9695155B2, “Herbicidal substituted pyrimidinyloxy benzene compounds” (E. I. DU PONT DE NEMOURS AND COMPANY, priority 2013, dated 2017)
